Experimental findings from patent US20230085307A1, “PYRIDAZINONE COMPOUND AND HERBICIDE” (NISSAN CHEMICAL CORPORATION, priority 2019, published 2023) are described below.

One assay deals with late watergrass. Kind of assay: Test Example 1: herbicidal activity, application before weed generation under submerged conditions (Table 16, symbol A). It counts as in vivo, late watergrass (Echinochloa oryzicola). Summed up: (§1)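 Submerged Wagner pots (alluvial soil, 4 cm water) sown with weed seeds and planted with 2.5-leaf rice seedlings; emulsifiable concentrate diluted in water applied to water surface on sowing day. Held in greenhouse at 25-30 °C; injury scored 0-5 by herbicidal rate after three weeks.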

The next assay concerns Japanese bulrush. Kind of assay: Test Example 1: herbicidal activity, application before weed generation under submerged conditions (Table 16, symbol B). It counts as in vivo, Japanese bulrush (Schoenoplectus juncoides). Summed up: as §1
The subject of a further assay is oval-leafed pondweed. The assay can be described thus: Test Example 1: herbicidal activity, application before weed generation under submerged conditions (Table 16, symbol C). The assay is classed as in vivo, oval-leafed pondweed (Monochoria vaginalis). Summed up:
as §1

The subject of assay [1] is barnyard grass. Kind of assay: Test Example 3: herbicidal effect by foliage application, Wagner pot (Table 18, symbol H). The assay is classed as in vivo, barnyard grass (Echinochloa crus-galli). Summed up:
(§2)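 Plants were sown in alluvial soil held under 0.1–0.5 cm standing water and grown 14 days in a greenhouse at 25–30 °C. An emulsifiable formulation, water-diluted to the set dose, was then sprayed onto the foliage, and effects were scored three weeks later using previously defined criteria.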

The subject of the next assay is Chinese sprangletop. Kind of assay: Test Example 3: herbicidal effect by foliage application, Wagner pot (Table 18, symbol D). The assay is classed as in vivo, chinese sprangletop (Leptochloa chinensis). Summed up:
as §2

The subject of a further assay is rice flat sedge. Kind of assay: Test Example 3: herbicidal effect by foliage application, Wagner pot (Table 18, symbol E). The assay is classed as in vivo, rice flat sedge (Cyperus iria). Summed up:
as §2

The subject of a further assay is southern crabgrass. The assay can be described thus: Test Example 5: herbicidal effect by foliage application, plastic box (Table 20, symbol F). It counts as in vivo, southern crabgrass (Digitaria ciliaris). The following applies: foliage application, three weeks after application. Summed up: (§3)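 Plants sown in sterilized diluvial soil and grown 14 days in a greenhouse at 25° C to 30° C, then sprayed on the foliage with the compound's emulsion diluted in water to a predetermined herbicide amount. Injury to weeds and crops scored three weeks after application on a visual rating scale.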

For the next assay, the system named is green foxtail. Kind of assay: Test Example 5: herbicidal effect by foliage application, plastic box (Table 20, symbol G). It counts as in vivo, green foxtail (Setaria viridis). The following applies: foliage application, three weeks after application. Summed up:
as §3

Assay [2] concerns barnyard grass. Kind of assay: Test Example 5: herbicidal effect by foliage application, plastic box (Table 20, symbol H). The settings on record: foliage application, three weeks after application. The assay is classed as in vivo, barnyard grass (Echinochloa crus-galli). Summed up:
as §3

In another assay the test system is wild oat. Kind of assay: Test Example 5: herbicidal effect by foliage application, plastic box (Table 20, symbol I). It counts as in vivo, wild oat (Avena fatua). The following applies: foliage application, three weeks after application. Summed up:
as §3

In another assay the test system is blackgrass. Kind of assay: Test Example 5: herbicidal effect by foliage application, plastic box (Table 20, symbol J). The following applies: foliage application, three weeks after application. It counts as in vivo, blackgrass (Alopecurus myosuroides). Summed up: as §3
Another assay deals with Italian ryegrass. The assay can be described thus: Test Example 5: herbicidal effect by foliage application, plastic box (Table 20, symbol K). The settings on record: foliage application, three weeks after application. The assay is classed as in vivo, Italian ryegrass (Lolium multiflorum). Summed up:
as §3

The subject of another assay is windgrass. Kind of assay: Test Example 5: herbicidal effect by foliage application, plastic box (Table 20, symbol L). It counts as in vivo, windgrass (Apera spica-venti). The settings on record: foliage application, three weeks after application. Summed up:
as §3

The subject of a further assay is velvetleaf. The assay can be described thus: Test Example 5: herbicidal effect by foliage application, plastic box (Table 20, symbol M). It counts as in vivo, velvetleaf (Abutilon theophrasti). The settings on record: foliage application, three weeks after application. Summed up:
as §3

A further assay concerns redroot pigweed. Kind of assay: Test Example 5: herbicidal effect by foliage application, plastic box (Table 20, symbol N). The assay is classed as in vivo, redroot pigweed (Amaranthus retroflexus). The following applies: foliage application, three weeks after application. Summed up: as §3
The test system of a further assay is lambsquarters. The assay can be described thus: Test Example 5: herbicidal effect by foliage application, plastic box (Table 20, symbol O). The settings on record: foliage application, three weeks after application. The assay is classed as in vivo, lambsquarters (Chenopodium album). Summed up:
as §3

The next assay relates to chickweed. Kind of assay: Test Example 5: herbicidal effect by foliage application, plastic box (Table 20, symbol P). The assay is classed as in vivo, common chickweed (Stellaria media). The settings on record: foliage application, three weeks after application. Summed up: as §3
The subject of another assay is false cleavers. The assay can be described thus: Test Example 5: herbicidal effect by foliage application, plastic box (Table 20, symbol Q). It counts as in vivo, false cleavers (Galium spurium). The following applies: foliage application, three weeks after application. Summed up: as §3
Another assay concerns persian speedwell. The assay can be described thus: Test Example 5: herbicidal effect by foliage application, plastic box (Table 20, symbol R). The assay is classed as in vivo, Persian speedwell (Veronica persica). The following applies: foliage application, three weeks after application. Summed up: as §3
Setting [3] is: amount of applied herbicide 49 g/ha.
[4] abbreviates: amount of applied herbicide 45 g/ha.

SMILES strings stand for the structures.

`Cc1nn(C)c(=O)c(-c2c(-c3ccccc3OCC3CC3(F)F)sc3ccccc23)c1O` (centres unmarked) [1-120]: in the assay with late watergrass (320 g/ha applied herbicide), the “Herbicidal effect on A: late watergrass (grade 0-5)” value is 3 (Herbicidal rate of 40% or more and less than 70%). In addition, the “Herbicidal effect on B: Japanese bulrush (grade 0-5)” value in the assay with Japanese bulrush (320 g/ha applied herbicide) is 0 (Herbicidal rate of 5% or less (almost no effect)). In addition, the “Herbicidal effect on C: oval-leafed pondweed (grade 0-5)” value in the assay with oval-leafed pondweed (320 g/ha applied herbicide) was 0 (Herbicidal rate of 5% or less (almost no effect)). For the same compound, in the assay on barnyard grass [1] (320 g/ha), the “herbicidal effect on H (barnyard grass), rating 0-5” value was 3 (Herbicidal rate of 40% or more and less than 70%). The “herbicidal effect on D (Chinese sprangletop), rating 0-5” value in the assay on Chinese sprangletop (320 g/ha) is reported as 0 (Herbicidal rate of 5% or less (almost no effect)). In addition, in the assay on rice flat sedge (320 g/ha), the “herbicidal effect on E (rice flat sedge), rating 0-5” value is 2 (Herbicidal rate of 20% or more and less than 40%). For the same compound, the “F: southern crabgrass, herbicidal effect” value in the assay on southern crabgrass (AAH 320 g/ha) is recorded as 0 (Herbicidal rate of 5% or less (almost no effect)). Also, the “G: green foxtail, herbicidal effect” value in the assay with green foxtail (AAH 320 g/ha) is 0 (Herbicidal rate of 5% or less (almost no effect)). In addition, in the assay with barnyard grass [2] (AAH 320 g/ha), the “H: barnyard grass, herbicidal effect” value is reported as 0 (Herbicidal rate of 5% or less (almost no effect)). For the same compound, the “I: wild oat, herbicidal effect” value in the assay on wild oat (AAH 320 g/ha) is listed as 0 (Herbicidal rate of 5% or less (almost no effect)). For the same compound, the “J: blackgrass, herbicidal effect” value with blackgrass (AAH 320 g/ha) was 2 (Herbicidal rate of 20% or more and less than 40%). Further, the “K: Italian ryegrass, herbicidal effect” value in the assay on Italian ryegrass (AAH 320 g/ha) was 0 (Herbicidal rate of 5% or less (almost no effect)). Besides, the “L: windgrass, herbicidal effect” value with windgrass (AAH 320 g/ha) is on record as 0 (Herbicidal rate of 5% or less (almost no effect)). Moreover, the “M: velvetleaf, herbicidal effect” value in the assay with velvetleaf (AAH 320 g/ha) was 0 (Herbicidal rate of 5% or less (almost no effect)). In addition, the “N: redroot pigweed, herbicidal effect” value with redroot pigweed (AAH 320 g/ha) is 0 (Herbicidal rate of 5% or less (almost no effect)). In addition, the “O: lambsquarters, herbicidal effect” value in the assay on lambsquarters (AAH 320 g/ha) is listed as 0 (Herbicidal rate of 5% or less (almost no effect)). Moreover, the “P: chickweed, herbicidal effect” value in the assay with chickweed (AAH 320 g/ha) is 4 (Herbicidal rate of 70% or more and less than 90%). The “Q: false cleavers, herbicidal effect” value in the assay with false cleavers (AAH 320 g/ha) was 3 (Herbicidal rate of 40% or more and less than 70%). In addition, in the assay on persian speedwell (AAH 320 g/ha), the “R: persian speedwell, herbicidal effect” value was 5 (Herbicidal rate of 90% or more (almost completely withered)).

With `CCCC(=O)Oc1c(C)nn(C)c(=O)c1-c1c(-c2ccc(C(C)=NOC)cc2)sc2cc(F)ccc12` [3-018], in the assay with late watergrass (setting [3]), the “Herbicidal effect, A: late watergrass” value is 3 (Herbicidal rate of 40% or more and less than 70%). For the same compound, the “Herbicidal effect, B: Japanese bulrush” value in the assay with Japanese bulrush (setting [3]) is 2 (Herbicidal rate of 20% or more and less than 40%). For the same compound, the “Herbicidal effect, C: oval-leafed pondweed” value in the assay on oval-leafed pondweed (setting [3]) is 0 (Herbicidal rate of 5% or less (almost no effect)). Besides, the “herbicidal effect on H: barnyard grass” value in the assay with barnyard grass [1] (setting [4]) is 3 (Herbicidal rate of 40% or more and less than 70%). Further, the “herbicidal effect on D: Chinese sprangletop” value in the assay with Chinese sprangletop (setting [4]) was 0 (Herbicidal rate of 5% or less (almost no effect)). The “herbicidal effect on E: rice flat sedge” value in the assay on rice flat sedge (setting [4]) was 2 (Herbicidal rate of 20% or more and less than 40%). In the assay with southern crabgrass (45 g/ha), the “F: southern crabgrass, herbicidal effect grade” value is recorded as 0 (Herbicidal rate of 5% or less (almost no effect)). In the assay on green foxtail (45 g/ha), the “G: green foxtail, herbicidal effect grade” value is listed as 0 (Herbicidal rate of 5% or less (almost no effect)). The “H: barnyard grass, herbicidal effect grade” value in the assay with barnyard grass [2] (45 g/ha) is 0 (Herbicidal rate of 5% or less (almost no effect)). For the same compound, the “I: wild oat, herbicidal effect grade” value with wild oat (45 g/ha) was 0 (Herbicidal rate of 5% or less (almost no effect)). Also, in the assay on blackgrass (45 g/ha), the “J: blackgrass, herbicidal effect grade” value is listed as 0 (Herbicidal rate of 5% or less (almost no effect)). The “K: Italian ryegrass, herbicidal effect grade” value with Italian ryegrass (45 g/ha) is given as 0 (Herbicidal rate of 5% or less (almost no effect)). The “L: windgrass, herbicidal effect grade” value in the assay with windgrass (45 g/ha) is on record as 0 (Herbicidal rate of 5% or less (almost no effect)). The “M: velvetleaf, herbicidal effect grade” value in the assay with velvetleaf (45 g/ha) was 0 (Herbicidal rate of 5% or less (almost no effect)). In addition, in the assay on redroot pigweed (45 g/ha), the “N: redroot pigweed, herbicidal effect grade” value was 3 (Herbicidal rate of 40% or more and less than 70%). Besides, the “O: lambsquarters, herbicidal effect grade” value with lambsquarters (45 g/ha) was 1 (Herbicidal rate of 5% or more and less than 20%). The “P: chickweed, herbicidal effect grade” value in the assay with chickweed (45 g/ha) was 1 (Herbicidal rate of 5% or more and less than 20%). In the assay on false cleavers (45 g/ha), the “Q: false cleavers, herbicidal effect grade” value is 0 (Herbicidal rate of 5% or less (almost no effect)). The “R: persian speedwell, herbicidal effect grade” value in the assay on persian speedwell (45 g/ha) is 3 (Herbicidal rate of 40% or more and less than 70%).
